Reference: the supplement of paper PMC5412046
Structures can show the parent of a compound that is named as a salt.

How the values were obtained:
SB.mhdgc-1 [1] = assay: area under the dose-response curve of % viability (trapezoidal, 11 doses) (% viability x log10 concentration); higher = less cytotoxic; details: SB.mhdgc-1 (hereditary c.1380delA CDH1 gastric cancer)
Procedure, shortened: (§1)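 In 1536-well plates, each well held 500 gastric cancer cells of hereditary or sporadic patient origin in 5 μL medium. Compound in DMSO (23 nL, pintool) was added at 11 concentrations spaced threefold apart, and the top concentration was noted per compound. Luminescence was read on a ViewLux after a 48 h incubation and a 30 min room-temperature treatment with CellTiter-Glo. Figures give viability normalised to DMSO, either at the highest concentration or as trapezoidal area under the curve.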

SB.msgc-1 [2] = assay: as above; details: SB.msgc-1 (sporadic gastric cancer)
Procedure, shortened: as §1

SB.mhdgc-1 [3] = assay: viability at highest tested concentration (MAXR) relative to DMSO; higher = less cytotoxic; details: SB.mhdgc-1 (hereditary c.1380delA CDH1 gastric cancer)
Procedure, shortened: as §1

SB.msgc-1 [4] = assay: as above; details: SB.msgc-1 (sporadic gastric cancer)
Procedure, shortened: as §1

Row | SMILES | area under the dose-response curve (SB.mhdgc-1 [1]) | area under the dose-response curve (SB.msgc-1 [2]) | viability (SB.mhdgc-1 [3]) [%] | viability (SB.msgc-1 [4]) [%]
1 | O=c1c(-c2ccc(O)cc2)coc2cc(O[C@@H]3O[C@H](CO)[C@@H](O)[C@H](O)[C@H]3O)ccc12 [Daidzin] (top concentration 46.0829 µM) | 531 | 498 | 124 | 99.1
2 | OC1=CC2=C(C(=C1)O)C(=O)\C(=C(/O2)C3=CC(=C(O)C=C3)O)O [Quercetine] (top concentration 46.0829 µM) | 474 | 456 | 1.52 | 7.76
3 | [NH2][Pt]([NH2])([Cl])[Cl] [Cisplatin] (top concentration 46.0829 µM) | 546 | 539 | 74.8 | 106
4 | COc1ccc(Nc2nccc(NCCO)n2)cc1 [Cardiogenol] (top concentration 46.0829 µM) | 452 | 353 | 101 | 73.1
5 | O=[S+]([O-])(CCSSCC[S+](=O)([O-])[O][Na])[O][Na] [Mesna disulfide] (top concentration 46.0829 µM) | 517 | 552 | 135 | 117
6 | CC(C)N(CCNC(=O)CN1CCCC1=O)C(C)C [Pramiracetam hydrochloride] (top concentration 46.0829 µM) | 584 | 559 | 126 | 124
7 | CCOc1cc(C(=O)Nc2ccc(Cl)c(-c3nc4ccccc4[nH]3)c2)cc(OCC)c1OCC [SANT-2] (top concentration 46.0829 µM) | 389 | 450 | 40.2 | 53.1
8 | NC(=O)c1cnc(-c2ccc(C3(N)CCC3)cc2)c(-c2ccccc2)c1 [AZD-26] (top concentration 46.0829 µM) | 410 | 484 | 20.5 | 80.2
9 | Nc1cc(N2CCCCC2)nc(N)[n+]1[O-] [Minoxidil] (top concentration 46.0829 µM) | 507 | 579 | 71.2 | 94.7
10 | C[C@@]12OC(=O)[C@@]1(NC(=O)[C@@H]2CCCl)[C@@H](O)[C@H]\3CCC\C=C3 [Marizomib] (top concentration 46.0829 µM) | 173 | 169 | 2.73 | 3.33
11 | C[C@]12CC(=O)[C@H]3[C@@H](CC\C4=C\C(=O)\C=C/[C@]34C)[C@@H]1CC[C@]2(O)C(=O)CO (top concentration 23.0415 µM) | 566 | 604 | 92.6 | 103
12 | O=[S+]([O-])(O)c1ccc2cc(/N=N/c3cc([S+](=O)([O-])O)c4cccnc4c3O)ccc2c1 (top concentration 46.0829 µM) | 509 | 513 | 35.2 | 36.3
13 | CC(C)Oc1cc(Nc2nc(N[C@@H](C)c3ccc(F)cn3)ncc2Cl)n[nH]1 [AZ-23] (top concentration 46.0829 µM) | 473 | 499 | 40.2 | 32
14 | CC(C)[C@H](CO)Nc1nc(Nc2cccc(Cl)c2)c2ncn(C(C)C)c2n1 [Purvalanol A] (top concentration 46.0829 µM) | 332 | 471 | 39.7 | 33.2
15 | Cc1ncc([N+](=O)[O-])n1CC(C)O (centres undefined) [Secnidazole] (top concentration 46.0829 µM) | 513 | 507 | 90.1 | 86.5
16 | CCOC(=O)[C@@H](N)CCC(=O)N[C@@H](CSCc1ccccc1)C(=O)N[C@@H](C(=O)OCC)c1ccccc1 [Ezatiostat] (top concentration 46.0829 µM) | 433 | 476 | 4.09 | 41.6
17 | O=C(NCc1ccccc1)c1csc(Nc2ccncn2)n1 [Thiazovivin] (top concentration 46.0829 µM) | 413 | 496 | 15.5 | 56.6
18 | CC(CCc1ccc(O)cc1)NCCc1ccc(O)c(O)c1 (centres undefined) [Dobutamine hydrochloride] (top concentration 46.0829 µM) | 453 | 538 | 49.9 | 87.6
19 | NC[C@H](O)c1ccc(O)c(O)c1 [Noradrenaline bitartrate monohydrate] (top concentration 46.0829 µM) | 465 | 479 | 67.7 | 86
20 | CN(C)/N=N/c1nc[nH]c1C(N)=O [Dacarbazine] (top concentration 46.0829 µM) | 563 | 541 | 113 | 91.1
21 | COc1c(C)c2c(c(O)c1C/C=C(\C)CCC(=O)OCCN1CCOCC1)C(=O)OC2 [Mycophenolate mofetil] (top concentration 46.0829 µM) | 571 | 510 | 88.3 | 55.1
22 | CC(C)(C)C(=O)OCOP(=O)(COCCn1cnc2c(N)ncnc21)OCOC(=O)C(C)(C)C [Adefovir dipivoxil] (top concentration 46.0829 µM) | 248 | 370 | 13.8 | 24.5
23 | CCN1C[C@]2(OC(=O)c3ccccc3NC(C)=O)CC[C@H](OC)[C@@]34[C@@H]2C[C@@H]([C@@H]13)[C@@]1(O)C[C@H](OC)[C@H]2C[C@@H]4[C@]1(O)[C@H]2OC [Lappaconitine] (top concentration 46.0829 µM) | 562 | 496 | 117 | 101

Row | SMILES | area under the dose-response curve (SB.mhdgc-1 [1]) | area under the dose-response curve (SB.msgc-1 [2]) | viability (SB.mhdgc-1 [3]) [%] | viability (SB.msgc-1 [4]) [%]
24 | CN(C[C@@H]1COCCO1)[S+]([O-])(=O)NC2=CC3=C(C=C2)\C=C/C4=C(C=C(C=N4)C5=C[N](C)N=C5)C3=O [MK-2461] (top concentration 46.0829 µM) | 564 | 470 | 90.3 | 76.8
25 | Cc1onc(-c2ccccc2Cl)c1C(=O)N[C@@H]1C(=O)N2[C@@H]1SC(C)(C)[C@@H]2C(=O)[O-] [Sodium cloxacillin] (top concentration 46.0829 µM) | 513 | 606 | 97.4 | 121
26 | CNC(=O)c1ccc(N2C(=S)N(c3ccc(C#N)c(C(F)(F)F)c3)C(=O)C2(C)C)cc1F [MDV-3100] (top concentration 46.0829 µM) | 507 | 464 | 70.4 | 74.6
27 | COC(=O)C1C2CC3c4[nH]c5cc(OC)ccc5c4CCN3CC2CC(OC(=O)c2cc(OC)c(OC)c(OC)c2)C1OC (centres undefined) [Reserpine] (top concentration 46.0829 µM) | 418 | 525 | 5.27 | 45.2
28 | COC1=CC=C(C=C1)C2CC(=N/N2C3=CC=C(C=C3)[S+](N)([O-])=O)\C4=CC=CC=C4 (centres undefined) [ML 141] (top concentration 46.0829 µM) | 450 | 492 | 26.2 | 49.7
29 | O=C(O)/C=C/c1ccc(Cn2ccnc2)cc1 [Ozagrel hydrochloride] (top concentration 46.0829 µM) | 585 | 546 | 118 | 113
30 | COc1cc2c(Oc3ccc(NC(=O)C4(C(=O)Nc5ccc(F)cc5)CC4)cc3F)ccnc2cc1OCCCN1CCOCC1 [Foretinib] (top concentration 46.0829 µM) | 386 | 397 | 2.84 | 0.558
31 | CC(/C=C1\SC(=S)N(CC(=O)O)C1=O)=C\c1ccccc1 [Epalrestat] (top concentration 46.0829 µM) | 499 | 565 | 84.9 | 104
32 | CN1CCN(CC1)C2=C3OCN(C)N4\C=C(C(O)=O)/C(=O)C(=C34)C=C2F [Marbofloxacin] (top concentration 46.0829 µM) | 558 | 550 | 121 | 108
33 | O=C(c1ccc(OCCN2CCCCC2)cc1)c1c(-c2ccc(O)cc2)sc2cc(O)ccc12 [Raloxifene hydrochloride] (top concentration 46.0829 µM) | 350 | 481 | 5.75 | 62.9
34 | CC(N[C@H]1CCCC[C@@H]1NC(=O)c1ccc(Cl)cc1)c1cccc2ccccc12 (some centres undefined) [Calhex 231] (top concentration 46.0829 µM) | 377 | 434 | 36 | 42.8
35 | COc1cc2ncnc(Nc3cc(Br)c(O)c(Br)c3)c2cc1OC [WHI-P97] (top concentration 46.0829 µM) | 279 | 294 | 54.9 | 33.9
36 | CCCOc1ccc(C(=O)OCCN(CC)CC)cc1N [Proparacaine] (top concentration 46.0829 µM) | 580 | 533 | 103 | 102
37 | C[C@H](NC(=O)[C@@H](O)c1cc(F)cc(F)c1)C(=O)N[C@@H]1C(=O)N(C)c2ccccc2-c2ccccc21 (top concentration 46.0829 µM) | 500 | 522 | 88.9 | 97.4
38 | CC(C)(C)NC(=O)[C@@H]1CN(Cc2cccnc2)CCN1C[C@@H](O)C[C@@H](Cc1ccccc1)C(=O)N[C@H]1c2ccccc2C[C@H]1O.O=S(=O)(O)O [Indinavir] (top concentration 46.0829 µM) | 347 | 473 | 37.1 | 52.7
39 | CCOC(=O)\C1=C\[C@@H](OC(CC)CC)[C@H](NC(C)=O)[C@@H](N)C1 [Oseltamivir phosphate] (top concentration 46.0829 µM) | 529 | 531 | 144 | 92.5
40 | CNc1nc(Nc2ccc(C(=O)N3CCOCC3)cc2OC)ncc1Cl [Hg-10-102-01] (top concentration 46.0829 µM) | 579 | 520 | 89.6 | 101
41 | O=C1[C@H](Cc2ccc(O)cc2)N2C(=O)CCN(C(=O)NCc3ccccc3)[C@H]2CN1Cc1cccc2ccccc12 [ICG-001] (top concentration 46.0829 µM) | 484 | 475 | 35.6 | 54.7
42 | CN1CC/C(CC1)=C3\c4ccccc4CC(=O)c2sccc23 [Ketotifen] (top concentration 46.0829 µM) | 446 | 468 | 41 | 9
43 | CCCCC(C)(C)[C@H](O)/C=C/[C@H]1[C@H](O)CC(=O)[C@@H]1C/C=C\CCCC(=O)O [16,16-dimethyl PGE2] (top concentration 46.0829 µM) | 522 | 538 | 57.3 | 57.8
44 | CCN(CCO)CCCC(C)Nc1ccnc2cc(Cl)ccc12 (centres undefined) [Hydroxychloroquine sulfate] (top concentration 46.0829 µM) | 476 | 516 | 63.4 | 102
45 | Oc1c(Cl)cc(Cl)c2cccnc12 [Chloroxine] (top concentration 46.0829 µM) | 544 | 498 | 10.8 | 22.7
46 | C[C@@H](Oc1ccc2[nH]nc(/C=C/c3cnn(CCO)c3)c2c1)c1c(Cl)cncc1Cl (top concentration 46.0829 µM) | 385 | 456 | 46.5 | 30.9
